Laboratory results: patent US6368552B1, “Water treating agent and water treating method” (Kurita Water Industries Ltd., priority 1999, dated 2002)

Key:
[1] = Autoclave test of transference of the chemical from liquid water phase to steam phase at 200° C. (gas chromatography); type: physicochemical; conditions: autoclave 200° C.; for Conc. of chemical in water / Conc. of chemical in steam: 200 mg/liter aqueous solution, pH 11.5 with sodium hydroxide; for Conc. of chemical in water: liquid phase sample; for Conc. of chemical in steam: steam phase sample
Protocol: Each 50 ml of samples were taken from the steam phase and from the liquid phase directly after the temperature had reached at 200° C., which were analyzed for the concentration of the chemical on a gas chromatography. The ratio of the concentration of chemical in the steam phase versus the concentration of chemical in the liquid phase was calculated.

[2] = Removal of dissolved oxygen by potassium erysorbate at 60° C., 10 minutes; conditions: 100 mg potassium erysorbate per liter, pH of test soln. as in row (6.5-10.5)
Protocol: In a constant temperature bath held at 60° C., one liter of deionized water of a pH of 6.5 was stirred for one hour so as to saturate it with atmospheric oxygen and the oxygen concentration was measured by a dissolved oxygen meter (MOCA 3600 of the firm Orbisphere Laboratories). 100 mg of potassium erysorbate were added to the water and the mixture was agitated sufficiently, before the solution was poured into a 200 ml incubation bottle to fill it completely therewith, whereupon a closure stopper was fitted into the bottle so as to exclude any rest of gas space therein and the bottle was returned to the constant temperature bath of 60° C. to subject the solution to reaction for 10 minutes. After 10 minutes, the bottle was taken out of the bath and the dissolved oxygen concentration therein was detected by the dissolved oxygen meter. The rate of removal of dissolved oxygen is calculated from the proportion of the dissolved oxygen concentration after the addition of potassium erysorbate versus the dissolved oxygen concentration before the addition of potassium erysorbate (Comparative Example 15).
Test solutions were prepared from each one liter of deionized water by adjusting the pH thereof at 7.5, 9.0 and 10.5, respectively, by adding sodium hydroxide thereto as alkali reagent. […]

SMILES | Conc. of chemical in water [1] | Conc. of chemical in steam [1] | Conc. ratio Cs/Cw (concentration in the steam phase/concentration in liquid water phase) ([1]; pH 11.5) | Transference from the liquid water phase to the steam phase [1] | Converted into gluconic acid (with some decomposition into other compounds) ([1]; liquid water phase, pH 11.5) | Rate of O2 remov. [2]
CCCCCC1CCC(=O)O1 (stereo not drawn) [Example 1, γ-nonalactone] | 188 µg/mL | 207 µg/mL | 1.10 | – | – | –
CCCCCCC1CCC(=O)O1 (stereo not drawn) [Example 2, γ-decalactone] | 187 µg/mL | 120 µg/mL | 0.64 | – | – | –
C=CCc1ccc(O)c(OC)c1 [Example 4, Eugenol] | 184 µg/mL | 418 µg/mL | 2.27 | – | – | –
CC=Cc1ccc(O)c(OC)c1 [Example 5, Isoeugenol] | 186 µg/mL | 453 µg/mL | 2.44 | – | – | –
O=C1O[C@H](CO)[C@@H](O)[C@H](O)[C@H]1O [compound 1, glucono-δ-lactone, reference compound] | <1 µg/mL | <1 µg/mL | <0.01 | almost no transference | *2) Converted into 173 mg/l of gluconic acid with some decomposition into other compounds. | –
O=C1O[C@H]([C@H](O)CO)C([O-])=C1O.[K+] [compound 15, potassium erysorbate] | – | – | – | – | – | 30.1%
